Entries after “also recorded” stand apart in the source; their conditions may differ. Where a name gives a salt, the structure may show the parent alone.
Columns and labels:
[1] = molecular target: μ opioid receptor (Rattus norvegicus, UniProt P33535); assay: Opioid receptor competition binding, [3H]DAMGO, rat brain membranes
[2] = molecular target: δ opioid receptor (Rattus norvegicus, UniProt P33533); type: binding
[3] = molecular target: κ opioid receptor (Cavia porcellus, UniProt P41144); assay: Opioid receptor competition binding, [3H]U69,593, guinea pig brain membranes
[4] = tested on: mice; assay: Hot-plate test after s.c. administration; type: in vivo; details: Mus musculus, sc, 0.5 h, read-out: ED50 Hot-plate test
[5] = tested on: mice; assay: Tail-flick test after s.c. administration; type: in vivo; details: Mus musculus, sc, 0.5 h, read-out: ED50 Tail-flick test
[6] = tested on: mice; assay: Rotarod test of motor coordination after s.c. administration; type: in vivo, mouse; details: 10 mg/kg (dose range 1.25–10 mg/kg), 30 min
[7] = molecular target: δ opioid receptor; details: read-out: Ki δ; ref Spetea et al., 2005; cited from earlier work
[8] = molecular target: κ opioid receptor; details: read-out: Ki κ; ref Spetea et al., 2005; cited from earlier work

Structure (SMILES): COc1ccc2c3c1O[C@@]1(Cc4ccccc4)C(=O)C=C[C@@]4(OC)[C@@H](C2)N(C)CC[C@]314 [Compound 3, 5β-Benzyl-14-methoxycodeinone hydrochloride]
- Ki [1]: 34.1 ± 6 nM
- Ki [2]: > 10000 nM
- Ki [3]: 1890 ± 453 nM

Structure (SMILES): CN1CC[C@]23c4c5ccc(O)c4O[C@H]2[C@@H](O)C=C[C@H]3[C@H]1C5 [Morphine, Morphine hydrochloride]
- ED50 [4]: 2.63 mg/kg
- ED50 [5]: 2.29 mg/kg
- Effect on motor coordination (rotarod latencies) [6]: significant effect; also recorded: dose-dependent suppressive effects on motor coordination with significance
